Data from US6737383B1, “Herbicidal oxadiazolidines” (priority 1999, dated 2004).

Legend:
surinam grass = assay: Test B pre/postemergence surinam grass; assay type: in vivo, Brachiaria decumbens
Summary of the method: (§1)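 Response is a visual 0-to-10 score relative to untreated plants, where 0 means no effect and 10 means complete control, taken twelve to sixteen days after application. Treatments went onto soil at planting and onto foliage of 1- to 4-leaf plants, using a surfactant-containing non-phytotoxic solvent.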

crabgrass = assay: Test B pre/postemergence crabgrass; assay type: in vivo, Digitaria sanguinalis
Summary of the method: as §1

giant foxtail = assay: Test B pre/postemergence giant foxtail; assay type: in vivo, Setaria faberii
Summary of the method: as §1

rape = assay: Test B pre/postemergence rape; assay type: in vivo, Brassica napus
Summary of the method: as §1

pigweed = assay: Test B pre/postemergence pigweed; assay type: in vivo, Amaranthus retroflexus
Summary of the method: as §1

blackgrass = assay: Test B pre/postemergence blackgrass; assay type: in vivo, Alopecurus myosuroides
Summary of the method: as §1

velvetleaf = assay: Test B pre/postemergence velvetleaf; assay type: in vivo, Abutilon theophrasti
Summary of the method: as §1

cocklebur = assay: Test B pre/postemergence cocklebur; assay type: in vivo, Xanthium strumarium
Summary of the method: as §1

smallflower flatsedge = assay: Test B flood test smallflower flatsedge; assay type: in vivo, Cyperus difformis
Summary of the method: (§2)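 Flood test on plants grown to the 2-leaf stage; treated plants kept in greenhouse twelve to sixteen days, then visually rated against controls on a 0 (no effect) to 10 (complete control) scale.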

duck salad = assay: Test B flood test duck salad; assay type: in vivo, Heteranthera limosa
Summary of the method: as §2

bedstraw = assay: Test B pre/postemergence bedstraw; assay type: in vivo, Galium aparine; details: Postemergence, Rate 62 g/ha; scale 0 to 10, 0 is no effect, 10 is complete control
Summary of the method: as §1

rice = assay: Test B flood test rice; assay type: in vivo, Oryza sativa
Summary of the method: as §2

morningglory = assay: Test B pre/postemergence morningglory; assay type: in vivo, Ipomoea hederacea
Summary of the method: as §1

soybean = assay: Test B pre/postemergence soybean; assay type: in vivo, Glycine max
Summary of the method: as §1

corn = assay: Test B pre/postemergence corn; assay type: in vivo, Zea mays
Summary of the method: as §1

sugar beet = assay: Test B pre/postemergence sugar beet; assay type: in vivo, Beta vulgaris
Summary of the method: as §1

wheat = assay: Test B pre/postemergence wheat; assay type: in vivo, Triticum aestivum
Summary of the method: as §1

purple nutsedge = assay: Test B pre/postemergence purple nutsedge; assay type: in vivo, Cyperus rotundus
Summary of the method: as §1

bamyardgrass = assay: Test B flood test barnyardgrass; assay type: in vivo, Echinochloa crus-galli
Summary of the method: as §2

wild oat = assay: Test B pre/postemergence wild oat; assay type: in vivo, Avena fatua
Summary of the method: as §1

[1] = Postemergence, Rate 62 g/ha, scale 0 to 10, 0 is no effect, 10 is complete control
[2] = Postemergence, Rate 125 g/ha, scale of 0 to 10 where 0 is no effect and 10 is complete control
[3] = Postemergence, Rate 250 g/ha, scale of 0 to 10, 0 is no effect, 10 is complete control
[4] = Postemergence, Rate 500 g/ha, scale of 0 to 10 where 0 is no effect and 10 is complete control
[5] = Preemergence, Rate 62 g/ha, scale of 0 to 10 where 0 is no effect and 10 is complete control
[6] = Preemergence, Rate 125 g/ha, scale of 0 to 10 where 0 is no effect and 10 is complete control
[7] = Preemergence, Rate 250 g/ha, scale 0 to 10 (0 no effect, 10 complete control)
[8] = Preemergence, Rate 500 g/ha, scale of 0 to 10 where 0 is no effect and 10 is complete control
[9] = Rate 62 g/ha, flood test species, Pre-emergence, visual evaluation after twelve to sixteen days
[10] = Rate 125 g/ha, under heading Pre-emergence, flood test species, visual evaluation after twelve to sixteen days
[11] = Rate 250 g/ha, Pre-emergence (flood test species), scale 0 to 10, 0 is no effect, 10 is complete control
[12] = Rate 500 g/ha, Pre-emergence section of Table B, 0 to 10 scale (0 no effect, 10 complete control)

Compound: CC(C)N(C(=O)n1oc(=O)n(CCCC#N)c1=O)c1ccc(F)cc1 [Compound 647]
- Plant response rating, B. signalgrass (surinam grass; [1]): 4
- Plant response rating, B. signalgrass (surinam grass; [2]): 6
- B. signalgrass plant response rating (surinam grass; [3]): 7
- Plant response rating, B. signalgrass (surinam grass; [4]): 8
- B. signalgrass plant response rating (surinam grass; [5]): 3
- B. signalgrass plant response rating (surinam grass; [6]): 7
- Plant response rating, B. signalgrass (surinam grass; [7]): 9
- Plant response rating, B. signalgrass (surinam grass; [8]): 10
- Plant response rating, Crabgrass (crabgrass; [1]): 7
- Crabgrass plant response rating (crabgrass; [2]): 9
- Crabgrass plant response rating (crabgrass; [3]): 9
- Plant response rating, Crabgrass (crabgrass; [4]): 9
- Crabgrass plant response rating (crabgrass; [5]): 8
- Crabgrass plant response rating (crabgrass; [6]): 8
- Plant response rating, Crabgrass (crabgrass; [7]): 9
- Plant response rating, Crabgrass (crabgrass; [8]): 9
- Plant response rating, Giant foxtail (giant foxtail; [1]): 8
- Giant foxtail plant response rating (giant foxtail; [2]): 9
- Giant foxtail plant response rating (giant foxtail; [3]): 9
- Plant response rating, Giant foxtail (giant foxtail; [4]): 9
- Giant foxtail plant response rating (giant foxtail; [5]): 9
- Giant foxtail plant response rating (giant foxtail; [6]): 10
- Plant response rating, Giant foxtail (giant foxtail; [7]): 10
- Plant response rating, Giant foxtail (giant foxtail; [8]): 10
- Plant response rating, Rape (rape; [1]): 0
- Rape plant response rating (rape; [2]): 0
- Plant response rating, Rape (rape; [4]): 7
- Rape plant response rating (rape; [5]): 5
- Rape plant response rating (rape; [6]): 8
- Plant response rating, Rape (rape; [7]): 10
- Plant response rating, Rape (rape; [8]): 10
- Plant response rating, Redroot pigweed (pigweed; [1]): 0
- Redroot pigweed plant response rating (pigweed; [2]): 4
- Redroot pigweed plant response rating (pigweed; [5]): 10
- Redroot pigweed plant response rating (pigweed; [6]): 10
- Plant response rating, Redroot pigweed (pigweed; [7]): 10
- Plant response rating, Redroot pigweed (pigweed; [8]): 10
- Plant response rating, Blackgrass (blackgrass; [1]): 6
- Blackgrass plant response rating (blackgrass; [3]): 7
- Plant response rating, Blackgrass (blackgrass; [4]): 8
- Blackgrass plant response rating (blackgrass; [5]): 7
- Blackgrass plant response rating (blackgrass; [6]): 9
- Plant response rating, Blackgrass (blackgrass; [7]): 10
- Plant response rating, Blackgrass (blackgrass; [8]): 10
- Plant response rating, Velvetleaf (velvetleaf; [1]): 5
- Velvetleaf plant response rating (velvetleaf; [2]): 5
- Velvetleaf plant response rating (velvetleaf; [5]): 6
- Velvetleaf plant response rating (velvetleaf; [6]): 8
- Plant response rating, Velvetleaf (velvetleaf; [7]): 8
- Plant response rating, Velvetleaf (velvetleaf; [8]): 9
- Plant response rating, Cocklebur (cocklebur; [1]): 0
- Cocklebur plant response rating (cocklebur; [2]): 0
- Cocklebur plant response rating (cocklebur; [3]): 4
- Plant response rating, Cocklebur (cocklebur; [4]): 4
- Cocklebur plant response rating (cocklebur; [5]): 0
- Cocklebur plant response rating (cocklebur; [6]): 0
- Plant response rating, Cocklebur (cocklebur; [7]): 1
- Plant response rating, Cocklebur (cocklebur; [8]): 7
- Plant response rating, S. Flatsedge (0 to 10 scale, 0 is no effect, 10 is complete control) (smallflower flatsedge; [9]): 0
- S. Flatsedge plant response rating (0 to 10 scale, 0 is no effect, 10 is complete control) (smallflower flatsedge; [10]): 0
- S. Flatsedge plant response rating (smallflower flatsedge; [11]): 0
- S. Flatsedge plant response rating (smallflower flatsedge; [12]): 0
- Plant response rating, Ducksalad (0 to 10 scale, 0 is no effect, 10 is complete control) (duck salad; [9]): 0
- Ducksalad plant response rating (0 to 10 scale, 0 is no effect, 10 is complete control) (duck salad; [10]): 0
- Ducksalad plant response rating (duck salad; [11]): 0
- Ducksalad plant response rating (duck salad; [12]): 0
- Plant response rating, Bedstraw (bedstraw): 0
- Plant response rating, Rice (0 to 10 scale, 0 is no effect, 10 is complete control) (rice; [9]): 0
- Rice plant response rating (0 to 10 scale, 0 is no effect, 10 is complete control) (rice; [10]): 0
- Rice plant response rating (rice; [11]): 0
- Rice plant response rating (rice; [12]): 0
- Plant response rating, Morningglory (morningglory; [1]): 0
- Morningglory plant response rating (morningglory; [2]): 0
- Morningglory plant response rating (morningglory; [3]): 2
- Plant response rating, Morningglory (morningglory; [4]): 6
- Morningglory plant response rating (morningglory; [5]): 0
- Morningglory plant response rating (morningglory; [6]): 0
- Plant response rating, Morningglory (morningglory; [7]): 7
- Plant response rating, Morningglory (morningglory; [8]): 7
- Plant response rating, Soybean (soybean; [1]): 2
- Soybean plant response rating (soybean; [2]): 3
- Soybean plant response rating (soybean; [5]): 0
- Soybean plant response rating (soybean; [6]): 0
- Plant response rating, Soybean (soybean; [7]): 1
- Plant response rating, Soybean (soybean; [8]): 1
- Plant response rating, Corn (corn; [1]): 0
- Corn plant response rating (corn; [2]): 2
- Corn plant response rating (corn; [3]): 5
- Plant response rating, Corn (corn; [4]): 6
- Corn plant response rating (corn; [5]): 0
- Corn plant response rating (corn; [6]): 3
- Plant response rating, Corn (corn; [7]): 5
- Plant response rating, Corn (corn; [8]): 10
- Plant response rating, Sugarbeets (sugar beet; [1]): 1
- Sugarbeets plant response rating (sugar beet; [2]): 2
- Sugarbeets plant response rating (sugar beet; [5]): 7
- Sugarbeets plant response rating (sugar beet; [6]): 8
- Plant response rating, Sugarbeets (sugar beet; [7]): 8
- Plant response rating, Sugarbeets (sugar beet; [8]): 8
- Plant response rating, Wheat (wheat; [1]): 0
- Wheat plant response rating (wheat; [2]): 3
- Wheat plant response rating (wheat; [5]): 1
- Wheat plant response rating (wheat; [6]): 6
- Plant response rating, Wheat (wheat; [7]): 8
- Plant response rating, Wheat (wheat; [8]): 8
- Plant response rating, Nutsedge (purple nutsedge; [1]): 0
- Nutsedge plant response rating (purple nutsedge; [2]): 0
- Plant response rating, Nutsedge (purple nutsedge; [4]): 6
- Nutsedge plant response rating (purple nutsedge; [5]): 0
- Nutsedge plant response rating (purple nutsedge; [6]): 0
- Plant response rating, Barnyardgrass (0 to 10 scale, 0 is no effect, 10 is complete control) (bamyardgrass; [9]): 0
- Barnyardgrass plant response rating (0 to 10 scale, 0 is no effect, 10 is complete control) (bamyardgrass; [10]): 0
- Barnyardgrass plant response rating (bamyardgrass; [11]): 0
- Barnyardgrass plant response rating (bamyardgrass; [12]): 0
- Plant response rating, Wild oats (wild oat; [1]): 0
- Wild oats plant response rating (wild oat; [2]): 0
- Wild oats plant response rating (wild oat; [5]): 5
- Wild oats plant response rating (wild oat; [6]): 8
- Plant response rating, Wild oats (wild oat; [7]): 9
- Plant response rating, Wild oats (wild oat; [8]): 10
